Assay results from patent US11466069B2, “Methods of treatment and novel constructs” (AUCKLAND UNISERVICES LIMITED, priority 2017, dated 2022).
Entries after “also recorded” stand apart in the source; their conditions may differ. Non-standard residues stand in square brackets, D forms with d. Residues, ends and D or L forms follow the SMILES beside them. No end group written: not given here.

How the values were obtained:
Cx43 hemichannel [1] = molecular target: T1, Cx43 hemichannel (Homo sapiens, UniProt P17302); assay: Hemichannel mediated ATP release assay (low calcium solution); type: cell-based; parameters: endogenous in cells; settings: for ATP release compared to low calcium, 30 min: ARPE-19, 5 μM XG19, 100 μM Peptide5, 100 μM CBX, 30 min low calcium
Description: Peptides were applied onto cells for uptake studies as previously described. Peptide solutions were removed from the cells, which were then exposed to either low calcium (Ca^2+) solution or HAIR solution to open hemichannels or high calcium solution to close hemichannels for […] at 37° C., 5% CO2.

gap junctions = assay: Lucifer Yellow dye scrape/load gap junction assay; type: cell-based, human; settings: ARPE-19, scrape/load; XG19 5 μM
Description: Peptides were applied onto cells for uptake as previously mentioned. Peptide solutions were removed from the cells and the cells were exposed to 0.1% […]/PBS dye (LY). A vertical and horizontal scrape was created in the cell monolayer using a pipette tip. The cells were then incubated at room temperature for 15 min. The LY dye solution was removed, cells were washed in PBS and fixed in 4% formaldehyde PBS with nuclei counterstained with DAPI. Coverslips were mounted in anti-fade medium (Citifluor™ AF1) and slides were imaged.

ARPE-19 cells [2] = assay: MTT cytotoxicity assay; type: cell-based, human; settings: ARPE-19 cells, 5, 10 or 20 μM for 1 or 24 h
Description: ARPE-19 cells were exposed to DMEM/F12 (normal medium) or HAIR solution for 1 h. XG19 was mixed in DMEM/F12 or HAIR solution and applied to ARPE-19 cells at 0, 5, 10 or 20 μM concentrations for either 1 or 24 h at 37° C., 5% CO2. After the incubation period, the solutions in each well were removed and replaced with 0.5 mg/mL, MTT (Thermo Fisher Scientific) in PBS and incubated for 4 h at 37° C. and 5% CO2. The MTT/PBS solution was then removed and replaced with HCl-isopropanol solution (0.04 M) to dissolve formed formazan. The intensity of purple colour was quantified by measuring absorbance at 570 nm with correction of interference at 650 nm (BioTek Synergy HT).

Cx43 hemichannel [3] = molecular target: T1, Cx43 hemichannel; assay: Hemichannel mediated EthD-1 dye uptake assay; type: cell-based; parameters: endogenous in cells; settings: ARPE-19 cells, 5 μM peptide, low calcium solution
Description: Peptides were applied onto cells for uptake as previously mentioned. Peptide solutions were removed from the cells exposed to 2 μM ethidium homodimer-1 (EthD-1) in either Hanks Buffered Salt Solution (137 mM NaCl, 5.4 mM KCl, 0.25 mM Na2HPO4, 0.1 g glucose, 0.44 mM KH2PO4, 1.0 mM MgSO4, 4.2 mM NaHCO3)+EGTA (5 mM) (low calcium solution) to open hemichannels or high calcium (Ca′) solution (Hanks Buffered Salt Solution+1.3 mM CaCl2)) for […] at 37° C., 5% CO2. The solutions were removed, cells were washed in PBS and fixed in 4% formaldehyde PBS before counterstaining nuclei with DAPI. Coverslips were mounted in anti-fade medium (Citifluor™ AF1) and slides were imaged.

hRMEC cells = assay: Cellular uptake of FITC labelled peptides into hRMEC cells (confocal microscopy); type: cell-based, human
Description: Primary human retinal microvascular endothelial cells (hRMEC; Neuromics) were cultured and maintained in T25 flasks in EGM-2™ BulletKit™ media (Lonza) containing endothelial basal media (EBM-2; Lonza) and EGM-2 SingleQuots™ (Lonza), supplemented with 10% fetal bovine serum and 1% Antibiotic-Antimicotic (Sigma) at 37° C. with 5% CO2. VEGF was excluded from the EGM-2 media.
(§1) Peptides or control channel blockers, carbenoxolone (CBX) (Sigma) or lanthanum chloride (LaCl3; Sigma) were mixed with DMEM/F12 or EGM-2™ BulletKit™ media at appropriate concentrations and applied onto cells for 1 h at 37° C., 5% CO2. For cell uptake under hypoxic conditions, peptides were delivered in hypoxic, acidic ion-shifted Ringers (HAIR) solution (13) for 1 h at 37° C., 5% CO2. For cell uptake under hyperglycaemia and inflammation conditions peptides were delivered in hyperglycaemia and inflammation solution for 24 h at 37° C., 5% CO2. The solutions were removed and cells were washed in PBS and fixed in 4% formaldehyde PBS with nuclei were counterstained with DAPI. Coverslips were mounted in anti-fade medium (Citifluor™ AF1) and cells were visualised by confocal microscopy.

[4] = test system: hyperglycaemic and inflamed ARPE-19 cells; assay: Cellular uptake in hyperglycaemic and inflamed ARPE-19 cells; type: cell-based, human; settings: ARPE-19, FITC labelled peptide, 24 h
Description: The inflammatory cytokines TNFα and Il-1β (PeproTech) were added to achieve a final concentration of 10 ng/ml each. Antibiotic-Antimycotic was added to the solution to achieve a 1% concentration. The solution was made fresh before application to cells.
as §1

hypoxic ARPE-19 cells = assay: Cellular uptake in hypoxic ARPE-19 cells (HAIR solution); type: cell-based, human; settings: ARPE-19, FITC labelled peptide, HAIR solution 1 h
Description: as §1

Cx43 hemichannel [5] = molecular target: T1, Cx43 hemichannel; settings: ethidium bromide uptake, literature (6); cited from earlier work
ARPE-19 cells [6] = assay: Cellular uptake of FITC labelled peptides into ARPE-19 cells in normal medium; type: cell-based, human; settings: for concentration at which cellular uptake was detected (FITC fluorescence): normal medium, FITC labelled peptide, 1 h, 10-50 μM (Gap19 up to 100 μM)
Description: Cell culture and maintenance Unless otherwise mentioned, all cell culture reagents were purchased from Gibco® or Invitrogen™ (Life Technologies). ARPE-19 cells are from a human retinal pigment epithelium cell line purchased from American Type Culture Collection (ATCC), and were maintained in T25 flasks in DMEM/F12 (DMEM/F-12, GlutaMAX™ medium containing 10% heat inactivated foetal bovine serum (FBS), and 1% Antibiotic-Antimicotic (Sigma)) at 37° C. with 5% CO2.
as §1

gap junction = settings: literature (6); cited from earlier work

T1 sequence (P17302 2-382 limits assumed): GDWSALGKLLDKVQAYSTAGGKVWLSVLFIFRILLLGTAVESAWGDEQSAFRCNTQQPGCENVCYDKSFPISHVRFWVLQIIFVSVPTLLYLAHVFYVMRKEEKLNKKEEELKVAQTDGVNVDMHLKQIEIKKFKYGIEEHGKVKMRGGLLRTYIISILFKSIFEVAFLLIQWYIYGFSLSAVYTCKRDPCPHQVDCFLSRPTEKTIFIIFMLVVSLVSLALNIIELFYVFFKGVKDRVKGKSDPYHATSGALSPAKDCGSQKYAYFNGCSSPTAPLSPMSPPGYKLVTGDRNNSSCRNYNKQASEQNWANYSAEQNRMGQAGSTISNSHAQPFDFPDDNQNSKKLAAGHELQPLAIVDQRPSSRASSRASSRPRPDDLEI

CC1(C)[C@@H](OC(=O)CCC(=O)O)CC[C@]2(C)[C@H]3C(=O)C=C4[C@@H]5C[C@@](C)(C(=O)O)CC[C@]5(C)CC[C@@]4(C)[C@]3(C)CC[C@@H]12 [CBX, carbenoxolone]
ATP release compared to low calcium, 30 min (Cx43 hemichannel [1]): reduced ATP release
gap junction function (Lucifer Yellow dye spread to neighbouring cells) (gap junctions): the dye was not further transported to any neighbouring cells; also recorded: inhibited gap junction communication

CC[C@H](C)[C@H](NC(=O)[C@H](CCC(=O)O)NC(=O)[C@@H](NC(=O)[C@H](CCC(N)=O)NC(=O)[C@H](CCCCN)NC(=O)CNC(=O)CNC(=O)[C@H](NC(=O)[C@H]1CCCN1C(=O)[C@@H](CCCNC(=N)N)NC(=O)[C@@H](CC(C)C)NC(=O)[C@@H](CS)NC(=O)[C@H](N)CC(C)C)C(C)C)[C@@H](C)CC)C(=O)N[C@@H](CCCCN)C(=O)N[C@@H](CCCCN)C(=O)N[C@@H](Cc1ccccc1)C(=O)N[C@@H](CCCCN)C(=O)O [XG19] (H-[dL][dC][dL][dR][dP][dV]GGKQIEIKKFK-OH)
cell viability (MTT) compared to untreated cells (ARPE-19 cells [2]): no significant difference in cell viability

FITC-XG19: FITC labelled XG19 used in the cellular uptake experiments ([dL][dC][dL][dR][dP][dV]GGKQIEIKKFK; also: FITC label, site not given here)
EthD-1 dye uptake (mean fluorescence intensity) compared to low calcium treatment (Cx43 hemichannel [3]): significant reduction of the mean fluorescence intensity; also recorded: reduced EthD-1 uptake

KQIEIKKFK (listed as Homo sapiens) [Gap19]
cellular uptake (FITC fluorescence) at 100 μM (hRMEC cells; 100 μM, still lower than 10 μM XG19): Some uptake was observed
concentration at which cellular uptake was detected (FITC fluorescence) (hRMEC cells; FITC labelled peptide, 1 h, XG19 10, 20, 50 μM, Gap19 10, 20, 50, 100 μM): > 50 µM
cellular uptake in hyperglycaemia and inflammation solution vs normal media [4]: undetectable in either condition; also recorded: no change in uptake
cellular uptake in hypoxic solution vs normal media (hypoxic ARPE-19 cells): undetectable in either condition; also recorded: no change in uptake
concentration at which efficacy improved (Cx43 hemichannel [5]): 344 to 688 µM
concentration with no effect on Cx43 hemichannel inhibition (Cx43 hemichannel [5]): > 172 µM
concentration at which cellular uptake was detected (FITC fluorescence) (ARPE-19 cells [6]; ARPE-19 cells): > 100 µM
gap junction function post uptake (gap junction): maintain gap junction function

VDCFLSRPTEKT [PepS]
ATP release relative to CBX treated group (Cx43 hemichannel [1]; ARPE-19, low calcium solution): greater than CBX
ATP release compared to low calcium, 30 min (Cx43 hemichannel [1]): reduced ATP release

YGRKKRRQRRRKQIEIKKFK [TAT-Gap19, fusion peptide of TAT peptide and Gap19]
concentration at which cells were saturated with peptide (ARPE-19 cells [6]; ARPE-19 cells): 20 µM
cellular uptake (FITC fluorescence), dependence on concentration (ARPE-19 cells [6]; ARPE-19 cells, 10, 20, 50 μM): dose dependant manner
overall cellular uptake compared to XG19 (ARPE-19 cells [6]; ARPE-19 cells, 10, 20, 50 μM): higher cell uptake than XG19
overall cellular uptake compared to XG19 (ARPE-19 cells [6]; ARPE-19 cells, 10, 20, 50 μM, listed as TAT-GAP19): much greater than for XG19 at all the tested concentrations
subcellular localisation of peptide after uptake (ARPE-19 cells [6]; ARPE-19 cells, FITC vs DAPI): mainly accumulated into the nucleus
concentration at which cellular uptake was detected (FITC fluorescence) (ARPE-19 cells [6]; ARPE-19 cells): ≤ 10 µM
